Measurements as given in US12697330B2, “Therapeutic methods using vadadustat” (Akebia Therapeutics, Inc., priority 2021, dated 2026).

What was measured:
Format in all cases: in vivo, human
[1] = Phase 2 study, Main Study: pharmacokinetics (vadadustat and vadadustat-O-glucuronide concentration)
Method: (§1) PK/PD Endpoints. An exposure-response analysis of vadadustat and PD measures were conducted as deemed appropriate. The PK parameters included (but were not limited to) the following: area under concentration-time curve from dosing to last measurable concentration (AUClast), area under concentration-time curve from dosing to infinity (AUCinf), Cmax, apparent total body clearance (CL/F), apparent volume of distribution (Vd/F), and terminal half-life (t1/2). The PD parameters included (but were not limited to) the following: EPO, reticulocytes, iron, ferritin, TIBC, and hepcidin.
(§2) PK population: included all randomized subjects who received study drug (vadadustat or epoetin alfa) and had enough drug concentrations to estimate AUC and Cmax. Analysis of this population was based on the dose amount taken at the date of PK sampling for the vadadustat group.

erythropoietin (EPO) = test: Phase 2 study, Main Study: pharmacodynamics, Baseline-Unadjusted serum EPO concentration
Method: as §1, §2
PD parameters for serum EPO concentration are presented by epoetin alfa stratification for vadadustat treatment groups in Table 7, Table 8a and Table 8b (baseline-unadjusted) and Table 9, Table 10a and Table 10b (baseline-adjusted).

healthy adults = test: Drug interaction study with co-administration of vadadustat in healthy adults; details: with probenecid, an inhibitor of UGT and OAT1/3 transporters
Excerpt: Sulfasalazine. Other Breast Cancer Resistance Protein Substrates. and Probenecid. Exposures to sulfasalazine (moderately) and mesalamine (mildly) were increased with co-administration of vadadustat based on a study in healthy adults. In subjects taking vadadustat, sulfasalazine and other clinically relevant substrates of the breast cancer resistance protein (BCRP) transporter (e.g., sulfasalazine, methotrexate, mitoxantrone, imatinib, irinotecan, lapatinib, topotecan, tenofovir, glecaprevir, pibrentasvir, or sofosbuvir), caution should be taken during the study. Probenecid, an inhibitor of UDP-glucuronosyltransferase (UGT) and the organic anion transporter (OAT)1/3 transporters, increased vadadustat area under the curve and is prohibited during the study.

[2] = low epoetin alfa stratum, Week 1 and Week 1+1 day

In the case of `O=C(O)CNC(=O)c1ncc(-c2cccc(Cl)c2)cc1O` [vadadustat, {[5-(3-chlorophenyl)-3-hydroxypyridine-2-carbonyl]amino}acetic acid], the concentrations versus dose ([1]; TIW group) is reported as “No dose dependent increases in concentrations”, the “mean concentration versus time profiles, dose dependency” value ([1]; Week 1, Week 1+1 day, and Week 11) is reported as “concentrations increased with dose levels” and the “EPO concentration versus dose” value (erythropoietin (EPO); high epoetin alfa stratum) is reported as “No particular trend”. The “EPO Cmax versus dose” value (erythropoietin (EPO); high epoetin alfa stratum, Week 1) was “dose dependent”, the “EPO Cmax and AUC versus comparator” value (erythropoietin (EPO); [2]) was “lower compared to the epoetin alfa treatment group” and the “EPO Cmax and AUC versus dose” value (erythropoietin (EPO); [2]) was “dose proportional”. For the same molecule, the “EPO concentration versus dose” value (erythropoietin (EPO); low epoetin alfa stratum, Week 1 and Week 1+1 day (300, 450 mg), Week 11 (150 to 600 mg)) was “Dose dependent increases in EPO concentrations” and the “vadadustat area under the curve” value (healthy adults) was “increased”.
